Reference: patent publication US20240261474A1, “BIODEGRADABLE TISSUE SCAFFOLD WITH SECONDARY MATRIX TO HOST WEAKLY ADHERENT CELLS” (THE U.S.A., as represented by the Secretary, Department of …, priority 2021, published 2024)
“Also recorded” adds a separate entry of the source.

Legend:
Assay type in all cases: cell-based, human
iPSC-RPE [1] = test: Shape metrics (cell area) of drug-treated fully mature iPSC-RPE on transwells; conditions: treated from D21 until fully mature; for iPSC-RPE area: transwells; for iPSC-RPE cell size compared with human RPE populations: reference P1 macular, P3 peripheral
Excerpt: Segmentation Using Convolutional Network: A Convolutional Neural Network (CNN) algorithm was used to recognize RPE cell borders from images of samples labeled by immunofluorescence. The algorithm generates a binary mask of segmented RPE borders; and this output was manually corrected to provide the “right answer” on which the algorithm would learn. Once trained, the CNN algorithm was fed with images of fluorescently labeled RPE cells and the binary mask images that were generated become the input for the REShAPE software for cell shape analysis (FIG. 3).
Morphometric Analysis Using REShAPE: The binary segmentation produced by the CNN algorithm was transferred to REShAPE for cell shape analysis. REShAPE (Retinal Epithelium Shape and Pigment Evaluator) is a Fiji plugin for image analysis. For every cell in a field of view that has been successfully segmented, REShAPE provide quantification of more than 25 different shape metrics. The raw data was stored in a spreadsheet to allow for statistical analysis. In addition, the software created images of segmented cells for every metric analyzed, where every cell is color-coded according to the raw values (FIG. 4). The color-coded images display the location of the cells analyzed. The shape metrics were analyzed with the software to give measurements of cell dimensions, such as area and perimeter, measurements of elongation, such as length of major and minor axis, and measurements of cell regularity, such as hexagonality score and number of neighbors. The analysis was performed in pixel units or μm, as far as the pixel to μm conversion is provided. The analysis of data and the graphs have been done using R software (“R Core Team (2018). R: A language and environment for statistical computing. R Foundation for Statistical Computing, Vienna, Austria. URL https://www.R-project.org/”). The R packages “plyr” and “ggplot2” have been use for data handling and plotting respectively (Wickham, 2009, 2011). The Dunnett's test, a method for post hoc pairwise multiple comparisons, was used to compute statistical analysis by comparing several treatment groups to control groups. A 95% family-wise confidence level has been used. […] Shapiro-Wilk's test and one-way ANOVA were carried out using the R package “dplyr” (Wickham et al., dplyr: A Grammar of Data Manipulation. Retrieved from https://cran.r-project.org/package=dplyr, 2019), while Q-Q plots were drawn using the R package “ggpubr” (Kassambara, ggpubr: “ggplot2” Based Publication Ready Plots. Retrieved from cran.r-project.org/package=ggpubr, 2020). […]
Subsequently, shape metrics were analyzed to confirm the effect of the drugs on cell areas. […]

iPSC-RPE [2] = test: Trans-epithelial electrical resistance (TER), tight junction integrity; conditions: fully mature iPSC-RPE; for TER resistance: minimum threshold 400 Ωcm^2, DMSO around 1100
Method: (§1) Different techniques were used to study RPE morphologic features.
At this point the trans-epithelial electrical resistance (TER) was assayed to confirm the quality of differentiation and examine the effect of drugs on tight junction integrity. The minimum threshold of 400 Ωcm^2 for epithelial resistance per unit area is used to determine good batches of differentiation.
Trans-epithelial electrical resistance (TER) is a measure of the tightness of the monolayer. The tighter the monolayer, the healthier are the cells in the monolayer. A cutoff of 400 ohm*cm^2 was used to exclude cells with low TER. […] The range specifies 90% of the data.

iPSC-RPE [3] = test: Scanning electron microscopy of apical processes; conditions: SEM; for apical processes average transversal length / apical processes average transversal width: transversal section; for type of apical processes: DMSO control shows both petal and finger-like
Method: FIG. 11. Defining petal (undulated) and finger-like apical processes. The transversal section of apical processes was measured to precisely define their shape. Petal-like apical processes, obtained by treating RPE cells with AGN 193109, have an average transversal length of 1.68 μm (length min 0.5, max 4 μm) and width of 0.20 μm (width min 0.1, max 1 μm). The petal-like apical processes are also wavy along their length. The width of the undulation ranges from 0.2 to 2 μm. Finger-like apical processes, obtained by treating RPE cells with endo-IWR-1, are cylindrical and have the same average transversal length and width of 0.23 μm (min 0.1, max 1 microns). An example of how measurements of the apical processes was done is shown for each type of apical processed.
as §1
Finally, transmission electron microscopy (TEM) was used to detect fine morphological alterations, whereas scanning electron microscopy (SEM) was essential to study modifications in apical processes structures. […] In DMSO-treated iPSC-RPE we found both types of apical processes, petal and finger-like.

iPSC-RPE [4] = test: Hematoxylin and eosin staining, gross morphology of the monolayer; conditions: H&E, AGN 193109 0.2 μM, endo-IWR-1 4 uM
Method: Brightfield imaging was used to determine RPE pigmentation defects, while hematoxylin and eosin (H&E) staining was valuable to inspect gross morphologic alterations of the monolayer. A section of transwell membrane was cut and mounted on a glass slide for brightfield imaging. Pigmentation levels were preserved after ENDO-1-IWR and AGN 193109 treatments as compared to DMSO-treated iPSC-RPE.
AGN 193109 was used at 0.2 μM and endo-IWR-1 at 4 uM. Both drugs were dissolved in DMSO, so that the final concentration of DMSO was not more than 0.1%. The final concentration of DMSO control was 0.1%. The compounds were added in RPE maturation medium until cells were mature. Gross cell morphology was also analyzed (FIGS. 20B, 20D, and 20F, left image) to detect possible abnormalities. Fine intracellular structures were examined for alterations with transmission electron microscopy (TEM, FIGS. 20B, 20D, and 20F, right image).

| effect on epithelial barrier / tight junction integrity (iPSC-RPE [2]) | SMILES | iPSC-RPE area (iPSC-RPE [1]) [μm^2] | iPSC-RPE cell size compared with human RPE populations (iPSC-RPE [1]) | TER resistance (iPSC-RPE [2]) | apical processes average transversal length (iPSC-RPE [3]) [μm] | apical processes average transversal width (iPSC-RPE [3]) [μm] | type of apical processes (iPSC-RPE [3]) | gross cell morphology (iPSC-RPE [4]) | type of apical processes (iPSC-RPE [3]; listed as Endo-IWR-1) | gross cell morphology (iPSC-RPE [4]; listed as endo-IWR-1) |
| --- | --- | --- | --- | --- | --- | --- | --- | --- | --- | --- |
| maintained tight junction integrity | Cc1ccc(C2=CCC(C)(C)c3ccc(C#Cc4ccc(C(=O)O)cc4)cc32)cc1 [AGN 193109, 4-[2-[5,6-Dihydro-5,5-dimethyl-8-(4-methylphenyl)-2-naphthalenyl]ethynyl]-benzoic acid] | 161.8±149.7 | comparable to the dimension of macular RPE population (P1); also recorded: shifts iPSC-RPE cell sizes toward macular RPE population (P1); also recorded: able to reproduce the cellular size of macular population (P1) and peripheral population (P3) respectively | ~1600 Ωcm^2 | 1.68 | 0.20 | enriched RPE cells with petal-like apical processes (with undulation); also recorded: enrich RPE cells with petal-like and finger-like apical processes, respectively | no gross morphological alterations were detected; also recorded: nor did they affect gross or fine cell morphology | – | – |
| maintained tight junction integrity | O=C(Nc1cccc2cccnc12)c1ccc(N2C(=O)C3C4C=CC(C4)C3C2=O)cc1 (stereo not drawn) [ENDO-1-IWR, 4-(1,3,3a,4,7,7a-Hexahydro-1,3-dioxo-4,7-methano-2H-isoindol-2-yl)-N-8-quinolinyl-Benzamide] | 251.8±218.4 | comparable to cells of peripheral RPE population P3; also recorded: increases cell sizes up to the dimensions of the peripheral RPE population P3; also recorded: able to reproduce the cellular size of macular population (P1) and peripheral population (P3) respectively; also recorded: increases RPE cell size to match human peripheral RPE population P3 | ~1200 Ωcm^2 | 0.23 | 0.23 | enriched uniquely by finger-like apical processes; also recorded: enrich RPE cells with petal-like and finger-like apical processes, respectively; also recorded: enriches these cells with finger-like apical processes | no gross morphological alterations were detected | enriched cells with finger-like apical processes | nor did they affect gross or fine cell morphology |
